Results from patent publication US20200010910A1, “Cytotoxic Chemotherapy-Based Predictive Assays for Acute Myeloid Leukemia” (The Regents of The University of California, priority 2017, published 2020).

How the values were obtained:
Assay type in all cases: cell-based
[1] = test system: A2780 and A2780ADR ovarian cancer cell lines; assay: doxorubicin-DNA adducts by AMS; conditions: 10 nM or 100 nM DOX 4 h, then 20 hr drug-free
Protocol: In order to assess the formation and loss of intracellular doxorubicin-DNA adducts, ovarian cancer cells were treated with Dox in culture. For doxorubicin-treated cells, one million ovarian cancer cells were seeded in 60-mm dishes the day before treatment and allowed to attach overnight. Similar to the ARA-C bolus protocol, the ovarian cancer cell lines were treated with a low (10 nM) or a high (100 nM) dose of unlabeled DOX supplemented with 0.8 nM of ^14C-labeled DOX (100 dpm/mL, 0.39-3.7 mCi/mmol specific activity (American Radiolabeled Chemicals, Inc.) for 4 h followed by an additional 20 hr of culturing in drug-free media (FIG. 25C). At 24 hrs, the cells were pelleted and washed. DNA was then isolated from these cells using the Qiamp DNA Blood Kit followed by two phenol and one chloroform extractions to remove intercalated DOX according to a published protocol (19). This protocol left intact covalent DOX-DNA adducts that are known to be formed as a consequence of DOX metabolism. Removal of intercalated DOX is important, since it is noncovalently bound and would otherwise partially diffuse out from the DNA sample causing variable results. Ten micrograms of DNA from each sample was converted to graphite and the ratios of ^14C to total C were measured by AMS. AMS was performed on triplicate DNA samples and the results were converted to drug-DNA adducts per ten million nucleotides.

A2780ADR = assay: CellTiter 96 Aqueous cell proliferation assay; conditions: A2780 ADR, 72 hr continuous treatment
Source text: (§1) Correlation of IC50 to the AML induction drugs Dox and Ara-C were first performed with the adherent bladder cancer cell lines 5637 and 5637R for cytarabine and with the adherent ovarian cancer cell lines A2780 and A2780ADR for doxorubicin. Cell lines 5637 and 5637R (Ara-C resistant) have been described previously (20). A2780 and A2780ADR (doxorubicin resistant) were purchased from Sigma-Aldrich and grown as recommended. IC50 values were obtained by plating 4000 cells per well in 96-well plates the night before treatment, and then allowing the cells to adhere over night. Leukemia cell lines capable of continuous proliferation in suspension and having differential sensitivities to Dox and Ara-C were also obtained for correlation analysis. MV-4-11 (acute monocytic leukemia) and THP-1 (acute monocytic leukemia) human cell lines were purchased from American Type Culture Collection (ATCC, Manassas, Va.). MOLM-13 (acute myeloid leukemia) human cells were purchased from AddexBio (San Diego, Calif.). For leukemia cell lines (suspension cultures), approximately 8,000-11,000 cells were seeded per well in 96-well plates the day of treatment. MV-4-11 cells were grown in IMDM (Iscove's Modified Dulbecco's Media) with 10% FBS, 100 U/ml penicillin, and 100 μg/ml streptomycin. THP-1, A2780, and A2780ADR cells were grown in RPMI-1640 media with 10% FBS, 100 U/ml penicillin, and 100 μg/ml streptomycin. 5637, 5637R, and MOLM-13 cells were grown in RPMI-1640 media with 20% FBS, 100 U/ml penicillin, and 100 μg/ml streptomycin. All cells were cultured at 37° C. in a humidified incubator. The cells were then incubated with increasing doses of cytarabine or doxorubicin continuously for 72 hours. IC50 values were determined using the CellTiter 96 Aqueous Non-Radioactive Cell Proliferation Assay (Promega). […] As shown, 5637 and 5673R have differential sensitivity to cytarabine, while A2780 and A2780ADR have differential sensitivity to doxorubicin. The leukemic suspension cell lines also have differential sensitivity to these two drugs.

THP-1 = assay: CellTiter 96 Aqueous cell proliferation assay; conditions: Homo sapiens, 72 hr continuous treatment
Source text: as §1

MV-4-11 = assay: CellTiter 96 Aqueous cell proliferation assay; conditions: Homo sapiens, MV4-11, 72 hr continuous treatment
Source text: as §1

A2780 = assay: CellTiter 96 Aqueous cell proliferation assay; conditions: Homo sapiens, 72 hr continuous treatment
Source text: as §1

MOLM-13 = assay: CellTiter 96 Aqueous cell proliferation assay; conditions: Homo sapiens, 72 hr continuous treatment
Source text: as §1

IC50 (A2780ADR): 12000 nM | IC50 (THP-1): 24 nM | IC50 (MV-4-11): 3 nM | IC50 (A2780): 21 nM | IC50 (MOLM-13): 4 nM
Structure (SMILES): COc1cccc2c1C(=O)c1c(O)c3c(c(O)c1C2=O)C[C@@](O)(C(=O)CO)C[C@@H]3O[C@H]1C[C@H](N)[C@H](O)[C@H](C)O1 [doxorubicin]
doxorubicin-DNA adducts in resistant A2780ADR compared to sensitive A2780 [1]: fewer doxorubicine-DNA adducts
